Laboratory results taken from ChEMBL document CHEMBL1201862, “PubChem BioAssay data set” (2004).
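1) Cells in 96-well plates. 2) Compound, 48 h, 5 concentrations. 3) Linear interpolation between surrounding doses. 4) Unreached endpoint = highest concentration. GI50 = concentration required for 50% inhibition of growth.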 The source made the active and inactive calls. Rule as the data show it: active = GI50 up to about 1.1 µM and inactive = higher.

How the values were obtained:
Test in all cases: growth of human tumour cells (NCI), 48 h
A549 = system: A549
SNB-75 = system: SNB-75
HOP-92 = system: HOP-92
KM12 = system: KM12
IGROV-1 = system: IGROV-1
DU-145 = system: DU-145
UACC-257 = system: UACC-257
EKVX = system: EKVX
MOLT-4 = system: MOLT-4
M14 = system: M14
NCI-H522 = system: NCI-H522
ACHN = system: ACHN
SF-539 = system: SF-539
SK-MEL-5 = system: SK-MEL-5
HT-29 = system: HT-29
OVCAR-5 = system: OVCAR-5
CCRF-CEM = system: CCRF-CEM
OVCAR-8 = system: OVCAR-8
RPMI-8226 = system: RPMI-8226
K562 = system: K562

Measured: GI50

CC1=C2C(=O)NN=C2CCN1c1ccc(Br)cc1
inactive: A549 > 100 µM | SNB-75 > 100 µM | HOP-92 > 100 µM | KM12 > 100 µM | IGROV-1 > 100 µM | DU-145 > 100 µM | UACC-257 > 100 µM | EKVX > 100 µM | MOLT-4 9.62 µM | M14 > 100 µM | NCI-H522 > 100 µM | ACHN > 100 µM | SF-539 > 100 µM | SK-MEL-5 > 100 µM | HT-29 > 100 µM | OVCAR-5 > 100 µM | CCRF-CEM 2.2 µM | OVCAR-8 > 100 µM

O=C(O)c1ccccc1/C=C1\Cc2ccccc2C1=O
inactive: A549 > 100 µM | SNB-75 > 100 µM | KM12 > 100 µM | IGROV-1 > 100 µM | DU-145 > 100 µM | UACC-257 > 100 µM | EKVX > 100 µM | MOLT-4 > 100 µM | M14 > 100 µM | NCI-H522 > 100 µM | ACHN > 100 µM | RPMI-8226 71.4 µM | SF-539 > 100 µM | SK-MEL-5 47.2 µM | HT-29 38.2 µM | OVCAR-5 > 100 µM | K562 > 100 µM | CCRF-CEM > 100 µM | OVCAR-8 > 100 µM

c1ccc(/C(=N/Nc2nc3ccccc3s2)C2CCCCC2)nc1
active: MOLT-4 0.203 µM | HT-29 0.569 µM
inactive: A549 16.9 µM | HOP-92 7.48 µM | KM12 10 µM | IGROV-1 4.43 µM | DU-145 12.6 µM | UACC-257 4.32 µM | EKVX 11.9 µM | M14 10.3 µM | NCI-H522 2.76 µM | ACHN 6.58 µM | RPMI-8226 3.94 µM | SF-539 13.8 µM | SK-MEL-5 6.24 µM | OVCAR-5 3.26 µM | K562 7.05 µM | CCRF-CEM 1.98 µM | OVCAR-8 4.16 µM

COc1cccc(C2c3cc4c(cc3OC(O)C2C)OCO4)c1OC (configuration not stated)
inactive: A549 4.02 µM | SNB-75 2.36 µM | HOP-92 1.66 µM | KM12 5.04 µM | IGROV-1 4.65 µM | DU-145 2.98 µM | UACC-257 7.18 µM | EKVX 20.1 µM | MOLT-4 2.16 µM | M14 11.1 µM | ACHN 3.18 µM | RPMI-8226 2.13 µM | SF-539 11.1 µM | SK-MEL-5 7.14 µM | HT-29 3.66 µM | OVCAR-5 16.2 µM | K562 2.7 µM | CCRF-CEM 2.61 µM | OVCAR-8 3.06 µM

C=C1C(=O)O[C@H]2C[C@@H]1C(=O)CC(C)CCCC(C)=CCC[C@@]2(C)O (some centres not stated)
inactive: A549 > 25 µM | HOP-92 > 25 µM | KM12 > 25 µM | IGROV-1 > 25 µM | DU-145 > 25 µM | UACC-257 > 25 µM | EKVX > 25 µM | MOLT-4 > 25 µM | M14 > 25 µM | NCI-H522 > 25 µM | ACHN > 25 µM | RPMI-8226 > 25 µM | SF-539 > 25 µM | SK-MEL-5 > 25 µM | HT-29 > 25 µM | OVCAR-5 > 25 µM | CCRF-CEM > 25 µM | OVCAR-8 > 25 µM

C=C1N(C=O)C(C)(C)N(O)C1(C)C
inactive: A549 > 100 µM | SNB-75 > 100 µM | HOP-92 > 100 µM | KM12 > 100 µM | IGROV-1 > 100 µM | DU-145 > 100 µM | UACC-257 > 100 µM | EKVX > 100 µM | MOLT-4 29.1 µM | M14 > 100 µM | ACHN > 100 µM | RPMI-8226 > 100 µM | SF-539 > 100 µM | SK-MEL-5 > 100 µM | HT-29 > 100 µM | OVCAR-5 > 100 µM | OVCAR-8 > 100 µM

CNC(=S)N(C1CCCCC1)C1CCCCC1
inactive: A549 56.9 µM | SNB-75 65.3 µM | HOP-92 50.8 µM | KM12 55.8 µM | IGROV-1 > 100 µM | DU-145 > 100 µM | UACC-257 34.1 µM | EKVX 34.8 µM | MOLT-4 37.3 µM | M14 > 100 µM | ACHN 98.4 µM | RPMI-8226 35.7 µM | SF-539 > 100 µM | SK-MEL-5 49 µM | HT-29 41.1 µM | OVCAR-5 > 100 µM | K562 29.9 µM | CCRF-CEM 33.1 µM | OVCAR-8 > 100 µM

CN1C/C(=C\c2cccs2)C(O)/C(=C/c2cccs2)C1 (configuration not stated)
inactive: A549 > 100 µM | HOP-92 20.4 µM | KM12 > 100 µM | IGROV-1 53 µM | DU-145 > 100 µM | UACC-257 89.5 µM | EKVX > 100 µM | MOLT-4 25.2 µM | M14 > 100 µM | NCI-H522 35.1 µM | ACHN > 100 µM | RPMI-8226 20.2 µM | SK-MEL-5 > 100 µM | HT-29 > 100 µM | OVCAR-5 > 100 µM | K562 57.8 µM | CCRF-CEM 27 µM | OVCAR-8 > 100 µM

Cc1ccc(Nc2nc(C)c(C(=O)CC(=O)C(=O)Nc3c(C)cccc3C(C)(C)C)s2)cc1
inactive: A549 > 100 µM | HOP-92 > 100 µM | KM12 > 100 µM | IGROV-1 > 100 µM | DU-145 > 100 µM | UACC-257 > 100 µM | EKVX > 100 µM | MOLT-4 > 100 µM | M14 > 100 µM | NCI-H522 > 100 µM | ACHN > 100 µM | RPMI-8226 > 100 µM | SF-539 > 100 µM | SK-MEL-5 > 100 µM | HT-29 > 100 µM | OVCAR-5 > 100 µM | K562 > 100 µM | CCRF-CEM > 100 µM | OVCAR-8 79.3 µM

Nc1ccn([C@H]2CO[C@@H](CO)[C@@H]2O)c(=O)n1
inactive: SNB-75 > 100 µM | HOP-92 > 100 µM | KM12 > 100 µM | IGROV-1 > 100 µM | DU-145 > 100 µM | UACC-257 > 100 µM | EKVX > 100 µM | MOLT-4 > 100 µM | ACHN > 100 µM | RPMI-8226 > 100 µM | SF-539 > 100 µM | SK-MEL-5 > 100 µM | HT-29 > 100 µM | OVCAR-5 > 100 µM | K562 > 100 µM | CCRF-CEM > 100 µM

O=C(/C=C(\N=P(c1ccccc1)(c1ccccc1)c1ccccc1)C(F)(F)C(F)(F)C(F)(F)C(F)(F)C(F)(F)C(F)(F)C(F)(F)F)c1ccccc1
inactive: A549 > 100 µM | SNB-75 > 100 µM | HOP-92 > 100 µM | KM12 > 100 µM | IGROV-1 > 100 µM | DU-145 > 100 µM | UACC-257 > 100 µM | MOLT-4 > 100 µM | M14 > 100 µM | ACHN > 100 µM | RPMI-8226 > 100 µM | SF-539 > 100 µM | SK-MEL-5 > 100 µM | HT-29 > 100 µM | OVCAR-5 > 100 µM | K562 > 100 µM | CCRF-CEM > 100 µM

Cc1cc(-c2nc3cccc(O)c3s2)ccc1N
inactive: A549 15.7 µM | SNB-75 > 100 µM | HOP-92 43.8 µM | KM12 10.3 µM | IGROV-1 22.2 µM | DU-145 > 100 µM | UACC-257 37.2 µM | EKVX 15.7 µM | MOLT-4 28.2 µM | M14 16.2 µM | ACHN 18.2 µM | RPMI-8226 45.2 µM | SF-539 57.4 µM | SK-MEL-5 19.3 µM | HT-29 36.3 µM | K562 45.4 µM | CCRF-CEM 25.8 µM | OVCAR-8 24.2 µM

O=C1C(=Cc2cccc(O)c2)N=C(c2ccccc2)N1n1c(-c2ccccc2)nc2ccccc2c1=O
inactive: A549 36.9 µM | HOP-92 15.5 µM | KM12 24.9 µM | IGROV-1 20.7 µM | DU-145 27.7 µM | UACC-257 29 µM | EKVX 34.9 µM | MOLT-4 15.9 µM | M14 37.2 µM | NCI-H522 17.1 µM | ACHN 21.6 µM | RPMI-8226 17.4 µM | SF-539 17.9 µM | SK-MEL-5 23.7 µM | HT-29 32.6 µM | OVCAR-5 37.1 µM | K562 37.3 µM | CCRF-CEM 24.3 µM | OVCAR-8 31.4 µM

CC(O[Si](c1ccccc1)(c1ccccc1)C(C)(C)C)[C@H](NC(=O)OC(C)(C)C)C(=O)O[Si](c1ccccc1)(c1ccccc1)C(C)(C)C (some centres not stated)
inactive: A549 11 µM | SNB-75 15.4 µM | HOP-92 10.9 µM | KM12 9.91 µM | IGROV-1 14.9 µM | DU-145 12.6 µM | UACC-257 14.9 µM | EKVX 11.9 µM | MOLT-4 10.6 µM | M14 15.7 µM | ACHN 10.8 µM | RPMI-8226 10.9 µM | SK-MEL-5 15.7 µM | HT-29 11.7 µM | OVCAR-5 15.9 µM | K562 13.2 µM | CCRF-CEM 20 µM | OVCAR-8 15.6 µM

O=C1CCCC2C3CC(CN12)C1CCCCN1C3.[O-][Cl+3]([O-])([O-])O (configuration not stated)
inactive: A549 > 100 µM | HOP-92 > 100 µM | KM12 > 100 µM | IGROV-1 > 100 µM | DU-145 > 100 µM | UACC-257 > 100 µM | EKVX > 100 µM | MOLT-4 > 100 µM | M14 > 100 µM | NCI-H522 > 100 µM | ACHN > 100 µM | RPMI-8226 > 100 µM | SF-539 > 100 µM | SK-MEL-5 > 100 µM | HT-29 > 100 µM | OVCAR-5 > 100 µM | CCRF-CEM > 100 µM | OVCAR-8 > 100 µM
